≈ marks a conversion by molar mass, not a printed value.
What was measured:
[1] = Stability in acidic environment at 25° C. (half-life of initial microbiological activity); format: physicochemical; conditions: aqueous solution
Protocol: Stability in acidic environnment at 25° C. of the novel
Note: t 1/2 represents the time for reducing to one half the initial powe
of the antibiotic determined by microbiological method through diffusion
on a plate using the test stock Microccocus luteus (Sarcina lutea) ATCC

[2] = tested on: Micrococcus luteus ATCC 9341 LRP 6; assay: Bacteriostatic power in solid medium (MIC); format: cell-based; conditions: Micrococcus luteus, ATCC9341; solid medium; read-out: Minimum inhibiting concentration
Source text: (§1) the bacteriostatic power, expressed as the minimum inhibiting concentration (MIC) against both aerobic and anaerobic, Gram positive and Gram negative, bacterial stocks: the related results are reported in the tables 2 and 3.

[3] = tested on: Pseudomonas aeruginosa LRP 9; assay: Bacteriostatic power in solid medium (MIC); format: cell-based; conditions: Pseudomonas aeruginosa, LRP9; solid medium; read-out: Minimum inhibiting concentration
Source text: as §1

[4] = tested on: Streptococcus pyogenes ATCC 8668 LRP 34; assay: Bacteriostatic power in solid medium (MIC); format: cell-based; conditions: Streptococcus pyogenes, ATCC8668; solid medium; read-out: Minimum inhibiting concentration
Source text: as §1

[5] = tested on: Bacteroides fragilis ATCC 23745 LRP 205; assay: Bacteriostatic power in solid medium (MIC); format: cell-based; conditions: Bacteroides fragilis, ATCC23745; solid medium; anaerobic; read-out: Minimum inhibiting concentration
Source text: as §1

[6] = tested on: Staphylococcus aureus ATCC 14154 LRP 78; assay: Bacteriostatic power in solid medium (MIC); format: cell-based; conditions: Staphylococcus aureus, ATCC14154; solid medium; Erythromycin resistant; read-out: Minimum inhibiting concentration
Source text: as §1

[7] = tested on: Fusobacteriumnecrophroum ATCC 27852 LRP 210; assay: Bacteriostatic power in solid medium (MIC); format: cell-based; conditions: read-out: Minimum inhibiting concentration
Source text: as §1

[8] = tested on: Micrococcus luteus ATCC 15957 LRP 193; assay: Bacteriostatic power in solid medium (MIC); format: cell-based; conditions: Micrococcus luteus, ATCC15957; solid medium; Erythromycin resistant; read-out: Minimum inhibiting concentration
Source text: as §1

[9] = tested on: Staphylococcus aureus ATCC 6538P LRP 39; assay: Bacteriostatic power in solid medium (MIC); format: cell-based; conditions: Staphylococcus aureus, ATCC6538P; solid medium; read-out: Minimum inhibiting concentration
Source text: as §1

[10] = tested on: Proteus vulgaris ATCC 6380 LRP 13; assay: Bacteriostatic power in solid medium (MIC); format: cell-based; conditions: Proteus vulgaris, ATCC6380; solid medium; read-out: Minimum inhibiting concentration
Source text: as §1

[11] = tested on: Acholeplasma laidlawii ATCC 23206 LRP 204; assay: Bacteriostatic power in solid medium (MIC); format: cell-based; conditions: Acholeplasma laidlawii, ATCC23206; solid medium; read-out: Minimum inhibiting concentration
Source text: as §1

Bacillus subtilis LRP 25 = assay: Bacteriostatic power in solid medium (MIC); format: cell-based; conditions: Bacillus subtilis, LRP25; solid medium; read-out: Minimum inhibiting concentration
Source text: as §1

Shigella sonnei LRP 5 = assay: Bacteriostatic power in solid medium (MIC); format: cell-based; conditions: LRP5, read-out: Minimum inhibiting concentration
Source text: as §1

[12] = tested on: Mycoplasma hominis I ATCC 14027 LRP 211; assay: Bacteriostatic power in solid medium (MIC); format: cell-based; conditions: Metamycoplasma hominis, ATCC14027; solid medium; read-out: Minimum inhibiting concentration
Source text: as §1

[13] = tested on: Neisseria gonorrhoeae ATCC 19424 LRP 214; assay: Bacteriostatic power in solid medium (MIC); format: cell-based; conditions: Neisseria gonorrhoeae, ATCC19424; solid medium; read-out: Minimum inhibiting concentration
Source text: as §1

Escherichia coli LRP 50 = assay: Bacteriostatic power in solid medium (MIC); format: cell-based; conditions: Escherichia coli, LRP50, read-out: Minimum inhibiting concentration
Source text: as §1

[14] = tested on: Haemophilus influenzae ATCC 19418 LRP 213; assay: Bacteriostatic power in solid medium (MIC); format: cell-based; conditions: Haemophilus influenzae, ATCC19418, read-out: Minimum inhibiting concentration
Source text: as §1

[15] = tested on: Streptococcus pneumoniae ATCC 6303 LRP 53; assay: Bacteriostatic power in solid medium (MIC); format: cell-based; conditions: Streptococcus pneumoniae, ATCC6303; solid medium; read-out: Minimum inhibiting concentration
Source text: as §1

[16] = tested on: Streptococcus pneumoniae ATCC 6303 LRP 35; assay: Bacteriostatic power in solid medium (MIC); format: cell-based; conditions: Streptococcus pneumoniae, ATCC6303; solid medium; read-out: Minimum inhibiting concentration
Source text: as §1

[17] = tested on: Staphylococcus aureus ATCC 6538P LRP 14; assay: Bacteriostatic power in solid medium (MIC); format: cell-based; conditions: Staphylococcus aureus, ATCC6538P; solid medium; Penycilline resistant; read-out: Minimum inhibiting concentration
Source text: as §1

[18] = tested on: Streptococcus faecalis LRP 7; assay: Bacteriostatic power in solid medium (MIC); format: cell-based; conditions: Enterococcus faecalis, LRP7; solid medium; read-out: Minimum inhibiting concentration
Source text: as §1

[19] = tested on: Streptococcus pyogenes ATCC 8668 LRP 197; assay: Bacteriostatic power in solid medium (MIC); format: cell-based; conditions: Streptococcus pyogenes, ATCC8668; solid medium; read-out: Minimum inhibiting concentration
Source text: as §1

[20] = tested on: Klelsiella pneumoniae LRP 54; assay: Bacteriostatic power in solid medium (MIC); format: cell-based; conditions: solid medium; read-out: Minimum inhibiting concentration
Source text: as §1

[21] = tested on: Streptococcus pneumoniae ATCC 6303 LRP 52; assay: Bacteriostatic power in solid medium (MIC); format: cell-based; conditions: Streptococcus pneumoniae, ATCC6303; solid medium; read-out: Minimum inhibiting concentration
Source text: as §1

[22] = tested on: Streptococcus faecalis subsp. zymogenes ATCC 12958 LRP 61; assay: Bacteriostatic power in solid medium (MIC); format: cell-based; conditions: Enterococcus faecalis, ATCC12958; solid medium; read-out: Minimum inhibiting concentration
Source text: as §1

[23] = tested on: Corynebacterium diphteriae LRP 24; assay: Bacteriostatic power in solid medium (MIC); format: cell-based; conditions: Corynebacterium, LRP24; solid medium; read-out: Minimum inhibiting concentration
Source text: as §1

[24] = tested on: Clostridium perfrigens ATCC 3624 LRP 206; assay: microbe, parasite or virus in culture; format: cell-based; conditions: ATCC3624, solid medium, anaerobic, read-out: Minimum inhibiting concentration
Source text: as §1

Salmonella typhy LRP 8 = assay: microbe, parasite or virus in culture; format: cell-based; conditions: LRP8, solid medium, read-out: Minimum inhibiting concentration
Source text: as §1

[25] = tested on: Staphylococcus aureus ATCC 6538 P LRP 39; assay: Bacteriostatic power in liquid medium (MIC); format: cell-based; conditions: Staphylococcus aureus, ATCC6538; liquid medium; read-out: Minimum inhibiting concentration
Source text: as §1

[26] = tested on: Streptococcus pyogenes ATCC 8668 LRP 34; assay: Bacteriostatic power in liquid medium (MIC); format: cell-based; conditions: Streptococcus pyogenes, ATCC8668; liquid medium; read-out: Minimum inhibiting concentration
Source text: as §1

[27] = tested on: Streptococcus faecalis subs. zymogenes ATCC 12958 LRP 61; assay: Bacteriostatic power in liquid medium (MIC); format: cell-based; conditions: Enterococcus faecalis, ATCC12958; liquid medium; read-out: Minimum inhibiting concentration
Source text: as §1

[28] = tested on: Streptococcus pneumoniae ATCC 6303 LRP 35; assay: Bacteriostatic power in liquid medium (MIC); format: cell-based; conditions: Streptococcus pneumoniae, ATCC6303; liquid medium; read-out: Minimum inhibiting concentration
Source text: as §1

[29] = tested on: Corynebacterium diphteriae LRP 24; assay: Bacteriostatic power in liquid medium (MIC); format: cell-based; conditions: Corynebacterium, LRP24; liquid medium; read-out: Minimum inhibiting concentration
Source text: as §1

[30] = tested on: Staphylococcus aureus ATCC 6538 P LRP 39; assay: Minimum bactericidal concentration (MBC); format: cell-based
Source text: (§2) the bacterial power, expressed as the minimum bactericidal power (MBC) against some Gram positive aerobic stocks (table 5).

[31] = tested on: Streptococcus pyogenes ATCC 8668 LRP 34; assay: Minimum bactericidal concentration (MBC); format: cell-based
Source text: as §2

[32] = tested on: Streptococcus faecalis subs. zymogenes LRP 61; assay: Minimum bactericidal concentration (MBC); format: cell-based
Source text: as §2

[33] = tested on: Streptococcus pneumoniae ATCC 6303 LRP 35; assay: Minimum bactericidal concentration (MBC); format: cell-based
Source text: as §2

[34] = tested on: Corynebacterium diphteriae LRP 24; assay: Minimum bactericidal concentration (MBC); format: cell-based
Source text: as §2

## CC[C@H]1OC(=O)[C@H](C)[C@@H](O[C@H]2C[C@@](C)(O)[C@@H](O)[C@H](C)O2)[C@H](C)[C@@H](O[C@@H]2O[C@H](C)C[C@H](N(C)C)[C@H]2O)[C@](C)(O)C[C@](C)(F)C(=O)[C@H](C)[C@@H](O)[C@]1(C)O [P-80205, (8S)-8-fluoroerythromycin C]
[1]; pH 2
  half-life: 1.65 h
[1]; pH 3
  half-life: 41.5 h
[2]
  MIC: 0.012 µg/mL (≈ 0.0163 µM)
[3]
  MIC: 25 µg/mL (≈ 33.9 µM)
[4]
  MIC: 0.024 µg/mL (≈ 0.0325 µM)
[5]
  MIC: 0.78 µg/mL (≈ 1.06 µM)
[6]
  MIC: 25 µg/mL (≈ 33.9 µM)
[7]
  MIC: 12.5 µg/mL (≈ 16.9 µM)
[8]
  MIC: 25 µg/mL (≈ 33.9 µM)
[9]
  MIC: 0.097 µg/mL (≈ 0.131 µM)
[10]
  MIC: 25 µg/mL (≈ 33.9 µM)
[11]
  MIC: 3.12 µg/mL (≈ 4.23 µM)
Bacillus subtilis LRP 25
  MIC: 0.097 µg/mL (≈ 0.131 µM)
Shigella sonnei LRP 5
  MIC: 25 µg/mL (≈ 33.9 µM)
[12]
  MIC: 25 µg/mL (≈ 33.9 µM)
[13]
  MIC: 0.195 µg/mL (≈ 0.264 µM)
Escherichia coli LRP 50
  MIC: 12.5 µg/mL (≈ 16.9 µM)
[14]
  MIC: 12.5 µg/mL (≈ 16.9 µM)
[15]
  MIC: 0.024 µg/mL (≈ 0.0325 µM)
[16]
  MIC: 0.024 µg/mL (≈ 0.0325 µM)
[17]
  MIC: 0.097 µg/mL (≈ 0.131 µM)
[18]
  MIC: 0.097 µg/mL (≈ 0.131 µM)
[19]
  MIC: 0.024 µg/mL (≈ 0.0325 µM)
[20]
  MIC: 25 µg/mL (≈ 33.9 µM)
[21]
  MIC: 0.012 µg/mL (≈ 0.0163 µM)
[22]
  MIC: 0.097 µg/mL (≈ 0.131 µM)
[23]
  MIC: 0.012 µg/mL (≈ 0.0163 µM)
[24]
  MIC: 6.25 µg/mL (≈ 8.47 µM)
Salmonella typhy LRP 8
  MIC: 12.5 µg/mL (≈ 16.9 µM)
[25]
  MIC: 0.195 µg/mL (≈ 0.264 µM)
[26]
  MIC: 0.049 µg/mL (≈ 0.0664 µM)
[27]
  MIC: 0.39 µg/mL (≈ 0.529 µM)
[28]
  MIC: 0.097 µg/mL (≈ 0.131 µM)
[29]
  MIC: 0.049 µg/mL (≈ 0.0664 µM)
[30]
  MBC/MIC: 16
[30]; Staphylococcus aureus, ATCC6538, read-out: Minimum bactericidal concentration (MBC)
  MBC: 3.12 µg/mL (≈ 4.23 µM)
[31]
  MBC/MIC: 16
[31]; Streptococcus pyogenes, ATCC8668, read-out: Minimum bactericidal concentration (MBC)
  MBC: 0.78 µg/mL (≈ 1.06 µM)
[32]
  MBC/MIC: > 8
[32]; Enterococcus faecalis, read-out: Minimum bactericidal concentration (MBC)
  MBC: > 3.12 µg/mL
[33]
  MBC/MIC: 2
[33]; Streptococcus pneumoniae, ATCC6303, read-out: Minimum bactericidal concentration (MBC)
  MBC: 0.195 µg/mL (≈ 0.264 µM)
[34]
  MBC/MIC: 8
[34]; Corynebacterium, LRP24, read-out: Minimum bactericidal concentration (MBC)
  MBC: 0.39 µg/mL (≈ 0.529 µM)
